{
  "source": "paper PMC12508063",
  "about": "“Chloroindazole based estrogen receptor β ligands with favorable pharmacokinetics promote functional remyelination and visual recovery” (Scientific Reports, 2025)",
  "key": {"[1]": {"assay": "Plasma protein binding (mouse)"}, "[2]": {"assay": "Pharmacokinetics and brain/plasma distribution in CD1 mice (IV, SC, PO)", "settings": "CD1 mouse", "method": "Mice were dosed intravenously at 5 mg/kg, subcutaneously at 10 mg/kg, and orally at 25 mg/kg.\nOnly values above the LLOQ.(0.3 ng/mL) were plotted."}},
  "note": "“And” between values parts separate entries of the source, which are not always exact repeats. Identical values can stand only once.",
  "data": [
    {"smiles": "Cc1cc(O)ccc1-n1nc2ccc(O)cc2c1Cl", "note": "[Compound K102, IndCl-o-Me]", "values": [
      {"measurement": "Protein Binding (% Bound) Mouse", "setting": "[1]", "value": 96.81, "unit": "%"},
      {"measurement": "Kp AUC0-t (brain/plasma)", "setting": "[2]; IV 5 mg/kg", "value": 0.43},
      {"measurement": "Kp AUClast (brain/plasma)", "setting": "[2]; IV 5 mg/kg", "value": 0.41},
      {"measurement": "Ratio of Cmax (brain/plasma)", "setting": "[2]; IV 5 mg/kg", "value": 0.54},
      {"measurement": "Vss_obs", "setting": "[2]; IV 5 mg/kg", "value": 5.74, "unit": "L/kg"},
      {"measurement": "AUC0-t", "setting": "[2]; IV 5 mg/kg, brain", "value": 211, "unit": "ng·h/g"},
      {"measurement": "T1/2", "setting": "[2]; IV 5 mg/kg, brain", "value": 52.2, "unit": "min"},
      {"measurement": "Tmax", "setting": "[2]; IV 5 mg/kg, brain", "value": 6, "unit": "min"},
      {"measurement": "AUC0-t", "setting": "[2]; IV 5 mg/kg, plasma", "value": 491, "unit": "ng·h/mL"},
      {"measurement": "C0 or max", "setting": "[2]; IV 5 mg/kg, plasma", "value": 3256, "unit": "ng/mL"},
      {"measurement": "Cl_obs", "setting": "[2]; IV 5 mg/kg, plasma", "value": 169, "unit": "mL/min/kg"},
      {"measurement": "T1/2", "setting": "[2]; IV 5 mg/kg, plasma", "value": 55.2, "unit": "min"},
      {"measurement": "Kp AUC0-t (brain/plasma)", "setting": "[2]; PO 25 mg/kg", "value": 0.40},
      {"measurement": "Ratio of Cmax (brain/plasma)", "setting": "[2]; PO 25 mg/kg", "value": 0.59},
      {"measurement": "AUC0-t", "setting": "[2]; PO 25 mg/kg, brain", "value": 391, "unit": "ng·h/g"},
      {"measurement": "Cmax", "setting": "[2]; PO 25 mg/kg, brain", "value": 279, "unit": "ng/g"},
      {"measurement": "Tmax", "setting": "[2]; PO 25 mg/kg, brain", "value": 15, "unit": "min"},
      {"measurement": "T1/2 (brain retention)", "setting": "[2]; PO 25 mg/kg, brain, 25 mg/kg", "value": "288 min and 287 min"},
      {"measurement": "AUC0-t", "setting": "[2]; PO 25 mg/kg, plasma", "value": 991, "unit": "ng·h/mL"},
      {"measurement": "Cmax", "setting": "[2]; PO 25 mg/kg, plasma", "value": 471, "unit": "ng/mL"},
      {"measurement": "T1/2", "setting": "[2]; PO 25 mg/kg, plasma", "value": 611.4, "unit": "min"},
      {"measurement": "Tmax", "setting": "[2]; PO 25 mg/kg, plasma", "value": 4.98, "unit": "min"},
      {"measurement": "F (Bioavailability)", "setting": "[2]; PO 25 mg/kg, plasma, 25 mg/kg", "value": "40% and 40.4%"},
      {"measurement": "AUCinf plasma", "setting": "[2]; PO 25 mpk", "value": 991, "unit": "ng·h/mL"},
      {"measurement": "Brain/Plasma Ratio(%)", "setting": "[2]; PO 25 mpk", "value": 40, "unit": "%"},
      {"measurement": "Kp AUC0-t (brain/plasma)", "setting": "[2]; SC 10 mg/kg", "value": 0.35},
      {"measurement": "Kp AUClast (brain/plasma)", "setting": "[2]; SC 10 mg/kg", "value": 0.35},
      {"measurement": "Ratio of Cmax (brain/plasma)", "setting": "[2]; SC 10 mg/kg", "value": 0.24},
      {"measurement": "AUC0-t", "setting": "[2]; SC 10 mg/kg, brain", "value": 477, "unit": "ng·h/g"},
      {"measurement": "Cmax", "setting": "[2]; SC 10 mg/kg, brain", "value": 218, "unit": "ng/g"},
      {"measurement": "Tmax", "setting": "[2]; SC 10 mg/kg, brain", "value": 30, "unit": "min"},
      {"measurement": "T1/2 (brain retention)", "setting": "[2]; SC 10 mg/kg, brain, 10 mg/kg", "value": 120, "unit": "min"},
      {"measurement": "T1/2 (brain retention)", "setting": "[2]; SC 10 mg/kg, brain, listed as IndCl-o-Me, 10 mg/kg", "value": 118, "unit": "min"},
      {"measurement": "AUC0-t", "setting": "[2]; SC 10 mg/kg, plasma", "value": 1385, "unit": "ng·h/mL"},
      {"measurement": "Cmax", "setting": "[2]; SC 10 mg/kg, plasma", "value": 919, "unit": "ng/mL"},
      {"measurement": "T1/2", "setting": "[2]; SC 10 mg/kg, plasma", "value": 134, "unit": "min"},
      {"measurement": "Tmax", "setting": "[2]; SC 10 mg/kg, plasma", "value": 4.98, "unit": "min"},
      {"measurement": "AUCinf brain", "setting": "[2]; SC 10 mpk", "value": 480, "unit": "ng·h/g"},
      {"measurement": "AUCinf plasma", "setting": "[2]; SC 10 mpk", "value": 1390, "unit": "ng·h/mL"},
      {"measurement": "Brain/Plasma Ratio(%)", "setting": "[2]; SC 10 mpk", "value": 35, "unit": "%"}
    ]}
  ]
}
